Key:
Type in all cases: biochemical
[1] = target: T1, monkey testicular C17-20 lyase (Macaca fascicularis, UniProt Q2XVA1); assay: inhibition of cynomolgus monkey testicular C17-20 lyase (microsomes), with or without preincubation; details: for inhibition at 0.1 µM / inhibition at 1 µM: cynomolgus monkey testicular lyase; for inhibition at 0.1 µM: concentration 0.1 μM; for inhibition at 1 µM: concentration 1 μM
T1 construct: microsomal preparations of the enzyme from rat or cynomolgus monkey testicular tissue; from tissue; host or cells: cynomolgus monkey testicular tissue, microsomes
T1 sequence (Q2XVA1 1-508): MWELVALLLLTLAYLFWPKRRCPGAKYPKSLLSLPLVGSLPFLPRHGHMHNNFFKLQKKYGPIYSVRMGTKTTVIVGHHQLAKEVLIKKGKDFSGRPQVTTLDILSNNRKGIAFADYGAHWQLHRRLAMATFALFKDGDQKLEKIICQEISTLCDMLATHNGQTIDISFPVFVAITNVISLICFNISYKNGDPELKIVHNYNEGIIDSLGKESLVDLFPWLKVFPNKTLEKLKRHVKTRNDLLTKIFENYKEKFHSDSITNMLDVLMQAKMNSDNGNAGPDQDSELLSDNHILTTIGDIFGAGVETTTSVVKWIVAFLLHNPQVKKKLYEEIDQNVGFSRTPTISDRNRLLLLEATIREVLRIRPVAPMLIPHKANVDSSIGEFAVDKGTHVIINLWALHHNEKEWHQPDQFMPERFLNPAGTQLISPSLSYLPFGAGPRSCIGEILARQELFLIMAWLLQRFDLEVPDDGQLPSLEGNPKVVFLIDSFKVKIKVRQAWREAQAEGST
Method: (§1) The in vitro enzymatic inhibitory activity of the present compounds as inhibitors of steroid C17-20 lyase was established using microsomal preparations of the enzyme from rat or cynomolgus monkey testicular tissue. Microsomes were isolated from cynomolgus monkey or rat testicular tissue. The compound to be tested was dissolved in dimethyl sulfoxide and diluted in 0.05M potassium phosphate buffer, (pH 7.4 for cynomolgus monkey lyase activity and pH 7.2 for rat lyase activity) to give the desired concentrations of test compound. The final assay concentration of DMSO was 0.1% (v/v). Assays contained an NADPH regenerating system comprised of […], 5 mM glucose-6-phosphate, 1 IU/mL glucose-6-phosphate dehydrogenase and microsomal protein in a total volume of 0.2 mL.
For determination of time dependent C17-20 lyase inactivation, the test compound was incubated with 20 to 62 μg/mL microsomal protein, 0.05 M potassium phosphate buffer, pH 7.4, and the NADPH regenerating system described above at 34° C. for 0 to 40 minutes. Aliquots of 180 μL were then removed and assayed for enzyme activity. Each aliquot was added to [7-^3 H]-17α-hydroxypregnenolone (11.2 mCi/mmole; 0.2 μCi per assay) plus unlabeled 17α-hydroxypregnenolone to give a total substrate concentration of 0.3 μM per assay and subsequently incubated for 6 minutes at 34° C. For determination of reversible inhibition by the test compound, the reaction was initiated by the addition of substrate and inhibitor (or DMSO in buffer for controls) simultaneously to the other assay components. The substrate used for cynomolgus monkey lyase was 7-^3 H-17α-hydroxypregnenolone, which yielded a final concentration of 0.3 μM substrate. […] The complete assay was incubated at 34° C. for 6 minutes for both rat and monkey lyase.
Each assay was terminated by addition of 5 mL of chloroform:methanol (2:1). Carrier steroid (2.5 μg each) representing substrates and products and 0.8 mL of distilled, deionized water were then added to each assay. Carrier steroids for the lyase assays were 17α-hydroxy-pregnenolone,dehydroepiandrosterone, and androst-5-ene-3β,17β-diol (cynomolgus monkey lyase assays) or 17α-hydroxyprogesterone, androstenedione, and testosterone (rat lyase assays). Testosterone, dihydrotestosterone, and 3,17-androstanediol were added to the 5α-reductase assays as carrier steroids. Radiolabeled and unlabeled steroid were extracted by the method of Moore and Wilson (Methods in Enzymol., eds. O'Malley, B. W. and Hardlan, J. G. 36, 1975, pp. 466-473). The organic phase containing the steroids was evaporated using nitrogen gas. For lyase assays, the residues dissolved in 18% tetrahydrofuran (v/v) in hexane. For 5α-reductase assays, the dried steroid residues were dissolved in 3% (v/v) isopropanol in hexane. the steroids were then separated by normal phase HPLC on a LiCrosorb® DIOL derivatized silica gel column (10 μm; 4×250 mm) with a 3% to 7.5% isopropanol in hexane gradient, followed by isocratic conditions of […] isopropanol in hexane. Radioactivity in the steroid peaks was measured using a Radiomatic® Model HS or Model A515 Flo-One detector for both lyase and 5α-reductase assays.
The enzyme activity for each assay was calculated from the percent conversion of substrate to products, and the results were expressed as percent inhibition of control. The data from these experiments were fitted into the appropriate two parameter model incorporating six concentrations of inhibitor to determine an IC50 value. […] When the compounds were tested using the above procedures with cynomolgus monkey testicular lyase, the following results were obtained: […]

[2] = target: T2, prostatic monkey 5α-reductase (Macaca fascicularis, UniProt Q28892); assay: inhibition of cynomolgus monkey prostatic 5α-reductase (microsomes)
T2 construct: microsomes were isolated from cynomolgus monkey prostate tissue; from tissue; host or cells: cynomolgus monkey prostate tissue, microsomes
T2 sequence (Q28892 1-254): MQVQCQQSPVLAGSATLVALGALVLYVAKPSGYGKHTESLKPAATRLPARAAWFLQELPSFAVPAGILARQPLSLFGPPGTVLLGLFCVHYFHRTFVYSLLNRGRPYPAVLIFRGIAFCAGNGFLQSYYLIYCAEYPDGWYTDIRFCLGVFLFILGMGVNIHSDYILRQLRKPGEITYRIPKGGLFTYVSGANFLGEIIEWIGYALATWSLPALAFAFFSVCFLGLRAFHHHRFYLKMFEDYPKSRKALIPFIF
Method: The activity of the present compounds as inhibitors of steroid 5α-reductase was determined using microsomal preparations of the 5α-reductase enzyme from laboratory animal prostate tissue. Specifically, microsomes were isolated from cynomolgus monkey prostate tissue. Protein concentration of the microsomal preparations was determined prior to use of the samples. […] Background radioactivity was determined from assays containing all components except enzyme. […]
(§2) Each assay was terminated by addition of 5 mL of chloroform:methanol (2:1). […] Radioactivity in the steroid peaks was measured using a Radiomatic® Model HS or Model A515 Flo-One detector for both lyase and 5α-reductase assays.
(§3) The enzyme activity for each assay was calculated from the percent conversion of substrate to products, and the results were expressed as percent inhibition of control. […]

[3] = target: T3, rat testicular C17-20 lyase (Rattus norvegicus, UniProt P11715); assay: inhibition of rat testicular C17-20 lyase (microsomes)
T3 construct: microsomal preparations of the enzyme from rat or cynomolgus monkey testicular tissue; from tissue; host or cells: rat testicular tissue, microsomes
T3 sequence (P11715 1-507): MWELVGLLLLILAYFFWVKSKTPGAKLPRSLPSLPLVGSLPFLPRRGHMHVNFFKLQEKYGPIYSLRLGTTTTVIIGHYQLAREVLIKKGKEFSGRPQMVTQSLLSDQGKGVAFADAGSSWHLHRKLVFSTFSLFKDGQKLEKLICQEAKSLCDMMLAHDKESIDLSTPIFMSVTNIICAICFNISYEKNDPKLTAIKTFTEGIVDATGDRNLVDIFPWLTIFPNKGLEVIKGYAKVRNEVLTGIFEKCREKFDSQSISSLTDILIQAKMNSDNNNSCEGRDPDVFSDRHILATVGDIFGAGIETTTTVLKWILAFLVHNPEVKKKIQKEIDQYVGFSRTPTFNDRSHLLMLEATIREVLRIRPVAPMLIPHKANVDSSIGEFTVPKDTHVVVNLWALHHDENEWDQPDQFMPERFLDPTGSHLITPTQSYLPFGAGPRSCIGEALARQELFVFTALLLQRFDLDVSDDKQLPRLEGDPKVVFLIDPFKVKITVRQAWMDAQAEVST
Method: as §1, with “mL. […]” for “mL.”
as §2, §3

[4] = preincubation time 40 (minutes)

Compound | inhibition at 0.1 µM ([1]; preincubation time 0 (minutes)) [%] | inhibition at 1 µM ([1]; preincubation time 0 (minutes)) [%] | inhibition at 0.1 µM [1, 4] [%] | inhibition at 1 µM [1, 4] [%] | IC50 [2] [nM] | IC50 ([3]; rat testicular microsomes, substrate 0.1 μM 17α-hydroxyprogesterone, pH 7.2, 34° C.) [nM] | IC50 ([1]; cynomolgus monkey testicular microsomes, substrate 0.3 μM 17α-hydroxypregnenolone, 34° C.) [nM] | Km ([3]; substrate Km, rat lyase activity) [µM]
C[C@]12CC[C@H]3[C@@H](CCC4=C([N+](=O)[O-])C(=O)CC[C@@]43C)[C@@H]1CC[C@@H]2OC1CC1 [17β-cyclopropyloxy-4-nitroandrost-4-en-3-one] | 36 | 78 | 79 | 95 | – | – | – | –
C[C@H](CO)[C@H]1CC[C@H]2[C@@H]3CCC4=C([N+](=O)[O-])C(=O)CC[C@]4(C)[C@H]3CC[C@]12C [(20S)-20-Hydroxymethyl-4-nitropregn-4-en-3-one] | – | – | – | – | 17 | 86 | 41 | –
C[C@H](CS)[C@H]1CC[C@H]2[C@@H]3CCC4=C([N+](=O)[O-])C(=O)CC[C@]4(C)[C@H]3CC[C@]12C [(20S)-20-mercaptomethyl-4-nitropregn-4-en-3-one] | 0 | 69 | 26 | 93 | – | – | – | –
CC(=O)[C@@]1(O)CC[C@H]2[C@@H]3CCC4=CC(=O)CC[C@]4(C)[C@H]3CC[C@@]21C [[1,2-^3 H]-17α-hydroxyprogesterone, reference compound] | – | – | – | – | – | – | – | 0.095

From patent US5990328A, “Process for the preparation of 4-amino-Δ4-3-ketosteroids via 4-nitro-Δ4-3-ketosteroids” (priority 1999, dated 1999)
